Tested on: mouse genes
Test: Whole genome expression in blood of mice after 2AA (Affymetrix GeneChip)
Type: in vivo
Protocol: To identify how 2AA pre-exposure promotes host defense to better protect against P. aeruginosa infection, we carried out whole genome gene expression studies of mice for several experimental conditions using the mouse full-thickness skin thermal injury infection model, including naïve; BI alone; 2AA treatment alone; 2AA pretreatment plus BI. The mice were injected IP, as we were not yet aware of the improved benefit obtained with IV delivery. Whole blood was collected after 0, 6, 24, 96 and 192 hr post 2AA injection. Also, pretreated BI mice were exposed to 2AA at 1 and 4 days pre-BI, with blood samples collected 24 hr post-BI. The transcriptome profiles were then determined and compared, and genes with statistically significant differences in their expression levels between the samples were further analyzed by pair-wise comparison (see experimental design, section 2.2).
In experiments to determine if T-aminoacetophenone acts as an immunomodulator, eight 6-week old CD-1 male mice were treated intraperitonialy with 500 μl of a 20 mM solution of T-aminoacetophenone in 0.9% NaCl (aq). A control group of mice was administered only 0.9% NaCl. Blood was withdrawn from the mice at time points of 6 hours, 24 hours, 96 hours, and 192 hours, and RNA was extracted from each blood sample.
Mouse GeneChip™ arrays, manufactured by Affymetrix (Santa Clara, Calif.), were used to compare the profile of gene expression in the blood samples of mice. The biotin-labeled cRNA used to hybridize to the GeneChips was prepared from the RNA extracted from the blood samples according to the Affymetrix GeneChip Expression Analysis Technical Manual (Research Genetics, Huntsville, Ala.).
The expression profiles from treated and untreated mice were compared and an additional constraint of a minimum expression ratio of 1 was applied to control false positives to 5%. The gene list was clustered and the genes showing upregulation at any of the time points considered were selected. […] Most of the genes listed in the table function in immune response or host-pathogen interaction. The table includes several cytokines and their receptors, genes involved in immune cell proliferation, and calcium-binding proteins that have a role in downstream signaling.

[1] = 2AA pre-BI, blood 24 hr post-BI (FIG. 38)

SMILES: CC(=O)c1ccccc1N [2AA, 2′-aminoacetophenone]
- down-regulated genes in 2AA-treated BI samples [1]: 23 genes
- up-regulated genes in 2AA-treated BI samples [1]: do not identify any up-regulated
- Fold Change AF220015 Rpt-1; regulatory protein, T lymphocyte 1 (6 h after IP 2AA, blood): 2.3 fold
- Fold Change AF237910 Membrane-spanning 4-domains, subfamily A (6 h after IP 2AA, blood): 2.8 fold
- Fold Change AI323359 Csfmr, colony stimulating factor IR, regulator of myeloid cell proliferation (6 h after IP 2AA, blood): 2.3 fold
- Fold Change AI462015 Nuclear factor of kappa light chain gene enhancer in B-cells inhibitor, alpha (6 h after IP 2AA, blood): 2.3 fold
- Fold Change AI648846 Solute carrier family 6 (6 h after IP 2AA, blood): 10.1 fold
- Fold Change AV026617 FBJ osteosarcoma oncogene (6 h after IP 2AA, blood): 15.0 fold
- Fold Change AV229143 Interferon activated gene (202A) (6 h after IP 2AA, blood): 21.2 fold
- Fold Change AV318494 Myeloid cell leukemia sequence 1 (6 h after IP 2AA, blood): 1.8 fold
- Fold Change BB193024 Interferon-induced transmembrane protein-2 (6 h after IP 2AA, blood): 5.0 fold
- Fold Change BB241535 Suppressor of cytokine signaling 3 (6 h after IP 2AA, blood): 4.9 fold
- Fold Change BB769628 Colony stimulating factor 2 receptor, beta 1 (6 h after IP 2AA, blood): 14.9 fold
- Fold Change BB784999 Triggering receptor expressed on myeloid cells 1 (6 h after IP 2AA, blood): 11.6 fold
- Fold Change BB831725 Suppressor of cytokine signaling 3 (6 h after IP 2AA, blood): 20.8 fold
- Fold Change BC003839 Myeloid cell leukemia sequence 1 (Mcl1) (6 h after IP 2AA, blood): 1.5 fold
- Fold Change BC010291 Interferon-inducible protein (Cd225) (6 h after IP 2AA, blood): 1.3 fold
- Fold Change BC011092 Chemokine (C-C) receptor 1 (6 h after IP 2AA, blood): 1.2 fold
- Fold Change BC011437 IL-1β (6 h after IP 2AA, blood): 3.5 fold
- Fold Change BC012653 Chemokine (C-X3-C) receptor 1 (6 h after IP 2AA, blood): 30.6 fold
- Fold Change BC021916 EMAPI, cytokine activity (6 h after IP 2AA, blood): 1.7 fold
- Fold Change BC022943 Lymphocyte cytosolic protein 1 (6 h after IP 2AA, blood): 2.0 fold
- Fold Change BE285634 Interleukin-1 receptor accessory protein (6 h after IP 2AA, blood): 1.0 fold
- Fold Change NM_008039 Receptor activity [formyl peptide receptor, related sequence 2] (Fpr-rs2) (6 h after IP 2AA, blood): 13.6 fold
- Fold Change NM_008677 p40phox; intracellular signaling cascade neutrophil cytosolic factor 4 (Ncf4) (6 h after IP 2AA, blood): 1.1 fold
- Fold Change NM_008879 Pls2, L-fimbrin, calcium ion binding lymphocyte cytosolic proteing 1 (Lep 1) (6 h after IP 2AA, blood): 20.4 fold
- Fold Change NM_009883 Nuclear factor induced by IL-6 (NF-IL6) (6 h after IP 2AA, blood): 1.0 fold
- Fold Change NM_011087 Paired-Ig-like receptor A1 (Piral) (6 h after IP 2AA, blood): 1.9 fold
- Fold Change NM_011313 Cacy; calcium binding protein A6 (calcyclin)cyclin-dependent protein kinase (6 h after IP 2AA, blood): 5.7 fold
- Fold Change NM_011315 Saa-3 lipid transported activity acute phase response (6 h after IP 2AA, blood): 4.7 fold
- Fold Change NM_011355 PU.1, transcription factor complex cell growth and/or maintenance (6 h after IP 2AA, blood): 17.0 fold
- Fold Change NM_011940 Interferon-activatable protein (Ifi202) (6 h after IP 2AA, blood): 29.8 fold
- Fold Change NM_011999 DCIR; C-type (calcium dependent, carbohydrate recognition domain) lectin (6 h after IP 2AA, blood): 22.8 fold
- Fold Change NM_030691 Integral to membrane immunoglobulin superfamily, member 6 (Igsf6) (6 h after IP 2AA, blood): 14.9 fold
- Fold Change NM_030694 Interferon-induced transmembrane protein-3 (6 h after IP 2AA, blood): 4.7 fold
- Fold Change U05264 Glycoprotein 49B (Gp49b) (6 h after IP 2AA, blood): 4.7 fold
- Fold Change U72644 Leukocyte specific transcript 1 (6 h after IP 2AA, blood): 1.6 fold
- Fold Change X14607 Lipocalin 2 (6 h after IP 2AA, blood): 13.9 fold
- additional genes upregulated (higher cutoff, Table 4) (6 hours after 2′-aminoacetophenone): 10 genes
- Fold Change AF220015 Rpt-1; regulatory protein, T lymphocyte 1 (24 h after IP 2AA, blood): 0.6 fold
- Fold Change AF237910 Membrane-spanning 4-domains, subfamily A (24 h after IP 2AA, blood): 0.5 fold
- Fold Change AI323359 Csfmr, colony stimulating factor IR, regulator of myeloid cell proliferation (24 h after IP 2AA, blood): 0.7 fold
- Fold Change AI462015 Nuclear factor of kappa light chain gene enhancer in B-cells inhibitor, alpha (24 h after IP 2AA, blood): 0.4 fold
- Fold Change AI648846 Solute carrier family 6 (24 h after IP 2AA, blood): 8.0 fold
- Fold Change AV026617 FBJ osteosarcoma oncogene (24 h after IP 2AA, blood): 23.8 fold
- Fold Change AV229143 Interferon activated gene (202A) (24 h after IP 2AA, blood): 10.9 fold
- Fold Change AV318494 Myeloid cell leukemia sequence 1 (24 h after IP 2AA, blood): 1.1 fold
- Fold Change BB193024 Interferon-induced transmembrane protein-2 (24 h after IP 2AA, blood): 1.0 fold
- Fold Change BB241535 Suppressor of cytokine signaling 3 (24 h after IP 2AA, blood): 1.1 fold
- Fold Change BB769628 Colony stimulating factor 2 receptor, beta 1 (24 h after IP 2AA, blood): 6.9 fold
- Fold Change BB784999 Triggering receptor expressed on myeloid cells 1 (24 h after IP 2AA, blood): 5.9 fold
- Fold Change BB831725 Suppressor of cytokine signaling 3 (24 h after IP 2AA, blood): 6.5 fold
- Fold Change BC003839 Myeloid cell leukemia sequence 1 (Mcl1) (24 h after IP 2AA, blood): 0.0 fold
- Fold Change BC010291 Interferon-inducible protein (Cd225) (24 h after IP 2AA, blood): 0.0 fold
- Fold Change BC011092 Chemokine (C-C) receptor 1 (24 h after IP 2AA, blood): −0.9 fold
- Fold Change BC011437 IL-1β (24 h after IP 2AA, blood): 0.6 fold
- Fold Change BC012653 Chemokine (C-X3-C) receptor 1 (24 h after IP 2AA, blood): 11.6 fold
- Fold Change BC021916 EMAPI, cytokine activity (24 h after IP 2AA, blood): 0.3 fold
- Fold Change BC022943 Lymphocyte cytosolic protein 1 (24 h after IP 2AA, blood): 0.2 fold
- Fold Change BE285634 Interleukin-1 receptor accessory protein (24 h after IP 2AA, blood): 0.2 fold
- Fold Change NM_008039 Receptor activity [formyl peptide receptor, related sequence 2] (Fpr-rs2) (24 h after IP 2AA, blood): 0.6 fold
- Fold Change NM_008677 p40phox; intracellular signaling cascade neutrophil cytosolic factor 4 (Ncf4) (24 h after IP 2AA, blood): 0.2 fold
- Fold Change NM_008879 Pls2, L-fimbrin, calcium ion binding lymphocyte cytosolic proteing 1 (Lep 1) (24 h after IP 2AA, blood): 8.4 fold
- Fold Change NM_009883 Nuclear factor induced by IL-6 (NF-IL6) (24 h after IP 2AA, blood): 0.3 fold
- Fold Change NM_011087 Paired-Ig-like receptor A1 (Piral) (24 h after IP 2AA, blood): 0.9 fold
- Fold Change NM_011313 Cacy; calcium binding protein A6 (calcyclin)cyclin-dependent protein kinase (24 h after IP 2AA, blood): 2.3 fold
- Fold Change NM_011315 Saa-3 lipid transported activity acute phase response (24 h after IP 2AA, blood): 5.6 fold
- Fold Change NM_011355 PU.1, transcription factor complex cell growth and/or maintenance (24 h after IP 2AA, blood): 0.0 fold
- Fold Change NM_011940 Interferon-activatable protein (Ifi202) (24 h after IP 2AA, blood): 9.4 fold
- Fold Change NM_011999 DCIR; C-type (calcium dependent, carbohydrate recognition domain) lectin (24 h after IP 2AA, blood): 8.0 fold
- Fold Change NM_030691 Integral to membrane immunoglobulin superfamily, member 6 (Igsf6) (24 h after IP 2AA, blood): 3.5 fold
- Fold Change NM_030694 Interferon-induced transmembrane protein-3 (24 h after IP 2AA, blood): 1.1 fold
- Fold Change U05264 Glycoprotein 49B (Gp49b) (24 h after IP 2AA, blood): 1.0 fold
- Fold Change U72644 Leukocyte specific transcript 1 (24 h after IP 2AA, blood): 0.9 fold

Source: patent publication US20130209515A1, “ANTI-INFECTIVE AND IMMUNOMODULATORY COMPOUNDS” (priority 2005, published 2013)
